What all share (format): cell-based
One test concerns IL-17FF. Briefly: IL-17FF production by PHA-stimulated human PBMC (human IL-17F ELI-Pair). Conditions: read-out: IC50 (IL-17FF). Put shortly:
(§1)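 Healthy-donor PBMC (1×10^5 cells/well) activated with 2 μg/ml PHA and incubated with compounds for 48 h. Supernatant IL-17AA/AF read by Luminex BioPlex, IL-17AA, IL-17FF and IFN-γ by ELISA. Screening at 10, 1, 0.1 and 0.01 μM; IC50 from semilogarithmic titrations.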

The subject of another test is IFN-γ. Briefly: IFN-γ production by PHA-stimulated human PBMC (OptEIA human IFN-g ELISA). Conditions: read-out: IC50 (IFNγ). In short, it runs like this: as §1
Test [1] concerns PBMC from healthy human donors. Put plainly: T cell proliferation assay (PHA-stimulated human PBMC, BrdU ELISA). Conditions: PHA-stimulated human PBMC, 48 hours, column D, read-out: IC50 (Tcell proliferation). Put shortly: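 Healthy-donor PBMC isolated on Ficoll, seeded at 1×10⁵ cells/well in RPMI with 10% dialysed FCS, stimulated with 2 μg/ml PHA in presence of test compound. Proliferation read after 48 hours by BrdU-incorporation ELISA.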

Setting [2] is: PHA-stimulated human PBMC, 48 hours, column B.
[3] abbreviates: PHA-stimulated human PBMC, 48 hours, column C.

Molecules are shown by their SMILES. Where two headings read alike, the source gives them in different places.

`CCOC(=O)c1c(-c2c(F)cccc2Cl)noc1-c1cnn(-c2ccccc2Cl)c1C(F)(F)F` [IB-33, ethyl 3-(2-chloro-6-fluorophenyl)-5-(1-(2-chlorophenyl)-5-(trifluoromethyl)-1H-pyrazol-4-yl)isoxazole-4-carboxylate]: the IC50 in the test with IL-17FF (Homo sapiens, PBMC, 48 h) lay in the range of 100 to 1000 nM; with IFN-γ (Homo sapiens, PBMC, 48 h), 100 to 1000 nM; in test [1], 100 to 1000 nM.

For the compound `O=C(c1c(-c2c(F)cccc2Cl)noc1-c1cnn(-c2cccc(Cl)c2)c1C(F)(F)F)N1CCOCC1` [IB-35, (3-(2-chloro-6-fluorophenyl)-5-(1-(3-chlorophenyl)-5-(trifluoromethyl)-1H-pyrazol-4-yl)isoxazol-4-yl)(morpholino)methanone], the IC50 fell in the range of 100 to 1000 nM with IL-17FF (setting [2]), 100 to 1000 nM with IFN-γ (setting [3]) and 1000 to 10000 nM in test [1].

As for `Nc1c(-c2c(F)cccc2Cl)noc1-c1cnn(-c2cccc(Cl)c2)c1C(F)(F)F` [IB-36, 3-(2-chloro-6-fluorophenyl)-5-(1-(3-chlorophenyl)-5-(trifluoromethyl)-1H-pyrazol-4-yl)isoxazol-4-amine], the IC50 (in the test with IL-17FF (setting [2]); in the test on IFN-γ (setting [3]); in test [1]) was 100 to 1000 nM in each case.

With `CCOC(=O)c1c(-c2c(F)cccc2Cl)noc1-c1cnn(-c2cccnc2)c1C(F)(F)F` [IB-37, ethyl 3-(2-chloro-6-fluorophenyl)-5-(1-(pyridin-3-yl)-5-(trifluoromethyl)-1H-pyrazol-4-yl)-isoxazole-4-carboxylate], the IC50 (with IL-17FF (setting [2]); in the test on IFN-γ (setting [3]); in test [1]) was < 10 nM throughout.

Turning to `CCOC(=O)c1c(-c2c(F)cccc2Cl)noc1-c1cnn(-c2ccncc2)c1C(F)(F)F` [IB-38, ethyl 3-(2-chloro-6-fluorophenyl)-5-(1-(pyridin-4-yl)-5-(trifluoromethyl)-1H-pyrazol-4-yl)-isoxazole-4-carboxylate], the IC50 (in the test with IL-17FF (setting [2]); with IFN-γ (setting [3]); in test [1]) was < 10 nM in each case.

Turning to `CCOC(=O)c1c(-c2ccccc2Cl)noc1-c1cnn(-c2cccc(Cl)c2)c1C(F)(F)F` [IB-41, ethyl 3-(2-chlorophenyl)-5-(1-(3-chlorophenyl)-5-(trifluoromethyl)-1H-pyrazol-4-yl)-isoxazole-4-carboxylate], the values for the IC50 (in the test with IL-17FF (setting [2]); in the test with IFN-γ (setting [3]); in test [1]) were < 10 nM, < 10 nM and 10 to 100 nM, respectively.

With `O=C(O)c1c(-c2ccccc2Cl)noc1-c1cnn(-c2cccc(Cl)c2)c1C(F)(F)F` [IB-42, 3-(2-chlorophenyl)-5-(1-(3-chlorophenyl)-5-(trifluoromethyl)-1H-pyrazol-4-yl)-isoxazole-4-carboxylic acid], the IC50 (with IL-17FF (setting [2]); in the test on IFN-γ (setting [3]); in test [1]) was 1000 to 10000 nM in each case.

In the case of `CCOC(=O)c1c(-c2c(F)cccc2Cl)noc1-c1cnn(-c2cccc(S(N)(=O)=O)c2)c1C(F)(F)F` [IB-43, ethyl 3-(2-chloro-6-fluorophenyl)-5-(1-(3-sulfamoylphenyl)-5-(trifluoromethyl)-1H-pyrazol-4-yl)-isoxazole-4-carboxylate], the IC50 in the test with IL-17FF (setting [2]) fell in the range of 100 to 1000 nM; in the test with IFN-γ (setting [3]), 1000 to 10000 nM; in test [1], 1000 to 10000 nM.

On to `CCOC(=O)c1c(-c2c(F)cccc2Cl)noc1-c1cnn(-c2ccccc2C#N)c1C(F)(F)F` [IB-44, ethyl 3-(2-chloro-6-fluorophenyl)-5-(1-(2-cyanophenyl)-5-(trifluoromethyl)-1H-pyrazol-4-yl)-isoxazole-4-carboxylate], for which the IC50 (in the test with IL-17FF (setting [2]); in the test with IFN-γ (setting [3]); in test [1]) was 1000 to 10000 nM throughout.

On to `CCOC(=O)c1c(-c2c(Cl)cccc2Cl)noc1-c1cnn(-c2cccc(Cl)c2)c1C(F)(F)F` [IB-45, ethyl 5-(1-(3-chlorophenyl)-5-(trifluoromethyl)-1H-pyrazol-4-yl)-3-(2,6-dichlorophenyl)-isoxazole-4-carboxylate], for which the IC50 (in the test with IL-17FF (setting [2]); with IFN-γ (setting [3]); in test [1]) was < 10 nM each time.

Consider `CCOC(=O)c1c(-c2ccc(Cl)cc2Cl)noc1-c1cnn(-c2cccc(Cl)c2)c1C(F)(F)F` [IB-46, ethyl 5-(1-(3-chlorophenyl)-5-(trifluoromethyl)-1H-pyrazol-4-yl)-3-(2,4-dichlorophenyl)-isoxazole-4-carboxylate], for which the IC50 (with IL-17FF (setting [2]); in the test with IFN-γ (setting [3]); in test [1]) was 100 to 1000 nM in each case.

As for `CCOC(=O)c1c(-c2ccccc2F)noc1-c1cnn(-c2cccc(Cl)c2)c1C(F)(F)F` [IB-47, ethyl 5-(1-(3-chlorophenyl)-5-(trifluoromethyl)-1H-pyrazol-4-yl)-3-(2-fluorophenyl)isoxazole-4-carboxylate], the IC50 (with IL-17FF (setting [2]); in the test with IFN-γ (setting [3]); in test [1]) was 10 to 100 nM throughout.

For `O=C(c1c(-c2c(F)cccc2Cl)noc1-c1cnn(-c2ccccc2Cl)c1C(F)(F)F)N1CCCO1` [IB-49, (3-(2-chloro-6-fluorophenyl)-5-(1-(2-chlorophenyl)-5-(trifluoromethyl)-1H-pyrazol-4-yl)isoxazol-4-yl)(isoxazolidin-2-yl)methanone], the IC50 in the test with IL-17FF (setting [2]) was in the range of 100 to 1000 nM; in the test on IFN-γ (setting [3]), 1000 to 10000 nM; in test [1], 1000 to 10000 nM.

As for `CON(C)C(=O)c1c(-c2c(F)cccc2Cl)noc1-c1cnn(-c2ccccc2Cl)c1C(F)(F)F` [IB-51, 3-(2-chloro-6-fluorophenyl)-5-(1-(2-chlorophenyl)-5-(trifluoromethyl)-1H-pyrazol-4-yl)-N-methoxy-N-methylisoxazole-4-carboxamide], the IC50 (in the test on IL-17FF (setting [2]); in the test on IFN-γ (setting [3]); in test [1]) was 1000 to 10000 nM throughout.

In the case of `O=C(c1c(-c2c(F)cccc2Cl)noc1-c1cnn(-c2ccccc2F)c1C(F)(F)F)N1CCCO1` [IB-52, (3-(2-chloro-6-fluorophenyl)-5-(1-(2-fluorophenyl)-5-(trifluoromethyl)-1H-pyrazol-4-yl)isoxazol-4-yl)(isoxazolidin-2-yl)methanone], the IC50 (in the test with IL-17FF (setting [2]); with IFN-γ (setting [3]); in test [1]) was 1000 to 10000 nM throughout.

Take `CON(C)C(=O)c1c(-c2c(F)cccc2Cl)noc1-c1cnn(-c2ccccc2F)c1C(F)(F)F` [IB-53, 3-(2-chloro-6-fluorophenyl)-5-(1-(2-fluorophenyl)-5-(trifluoromethyl)-1H-pyrazol-4-yl)-N-methoxy-N-methylisoxazole-4-carboxamide]: the IC50 (with IL-17FF (setting [2]); in the test with IFN-γ (setting [3]); in test [1]) was 100 to 1000 nM each time.

Regarding `O=C(c1c(-c2c(F)cccc2Cl)noc1-c1cnn(-c2cccnc2)c1C(F)(F)F)N1CCCO1` [IB-54, (3-(2-chloro-6-fluorophenyl)-5-(1-(pyridin-3-yl)-5-(trifluoromethyl)-1H-pyrazol-4-yl)isoxazol-4-yl)(isoxazolidin-2-yl)methanone], the IC50 (with IL-17FF (setting [2]); in the test with IFN-γ (setting [3]); in test [1]) was 1000 to 10000 nM throughout.

In the case of `CNC(=O)c1c(-c2c(F)cccc2Cl)noc1-c1cnn(-c2cccnc2)c1C(F)(F)F` [IB-55, 3-(2-chloro-6-fluorophenyl)-N-methyl-5-(1-(pyridin-3-yl)-5-(trifluoromethyl)-1H-pyrazol-4-yl)isoxazole-4-carboxamide], the IC50 (in the test on IL-17FF (setting [2]); in the test with IFN-γ (setting [3]); in test [1]) was 1000 to 10000 nM in each case.

With `CON(C)C(=O)c1c(-c2c(F)cccc2Cl)noc1-c1cnn(-c2cccnc2)c1C(F)(F)F` [IB-56, 3-(2-chloro-6-fluorophenyl)-N-methoxy-N-methyl-5-(1-(pyridin-3-yl)-5-(trifluoromethyl)-1H-pyrazol-4-yl)isoxazole-4-carboxamide], the IC50 (in the test with IL-17FF (setting [2]); in the test with IFN-γ (setting [3]); in test [1]) was 1000 to 10000 nM each time.

Consider `O=C(c1c(-c2c(F)cccc2Cl)noc1-c1cnn(-c2ccncc2)c1C(F)(F)F)N1CCCO1` [IB-57, (3-(2-chloro-6-fluorophenyl)-5-(1-(pyridin-4-yl)-5-(trifluoromethyl)-1H-pyrazol-4-yl)isoxazol-4-yl)(isoxazolidin-2-yl)methanone], for which the IC50 (in the test with IL-17FF (setting [2]); in the test with IFN-γ (setting [3]); in test [1]) was 1000 to 10000 nM each time.

Regarding `CON(C)C(=O)c1c(-c2c(F)cccc2Cl)noc1-c1cnn(-c2ccncc2)c1C(F)(F)F` [IB-59, 3-(2-chloro-6-fluorophenyl)-N-methoxy-N-methyl-5-(1-(pyridin-4-yl)-5-(trifluoromethyl)-1H-pyrazol-4-yl)isoxazole-4-carboxamide], the IC50 (with IL-17FF (setting [2]); in the test with IFN-γ (setting [3]); in test [1]) was 1000 to 10000 nM throughout.

For `CC(C)OC(=O)c1c(-c2c(F)cccc2Cl)noc1-c1cnn(-c2ccccc2Cl)c1C(F)(F)F` [IB-60], the IC50 (in the test on IL-17FF (setting [2]); with IFN-γ (setting [3]); in test [1]) was 1000 to 10000 nM in each case.

With `CC(C)OC(=O)c1c(-c2c(F)cccc2Cl)noc1-c1cnn(-c2cccnc2)c1C(F)(F)F` [IB-61, isopropyl 3-(2-chloro-6-fluorophenyl)-5-(1-(pyridin-3-yl)-5-(trifluoromethyl)-1H-pyrazol-4-yl)isoxazole-4-carboxylate], the IC50 in the test on IL-17FF (setting [2]) was 10 to 100 nM; in the test on IFN-γ (setting [3]) it was < 10 nM; in test [1] it was 10 to 100 nM.

Take `O=C(c1c(-c2ccccc2Cl)noc1-c1cnn(-c2cccc(Cl)c2)c1C(F)(F)F)N1CCCO1` [IB-62, (3-(2-chlorophenyl)-5-(1-(3-chlorophenyl)-5-(trifluoromethyl)-1H-pyrazol-4-yl)isoxazol-4-yl)(isoxazolidin-2-yl)methanone]: the IC50 (in the test on IL-17FF (setting [2]); in the test with IFN-γ (setting [3]); in test [1]) was 10 to 100 nM throughout.
